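96-well plates; 48 h exposure; 5 concentrations. Endpoints by linear interpolation between flanking doses. Not reached: highest tested concentration assigned. The concentration for 50% growth inhibition is given as GI50.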 Calls of active or inactive are those of the source. No stated cut-off is given here; in the data, active = GI50 up to about 1.1 µM and inactive = higher.
Tests used:
Experiment in all cases: inhibition of tumour cell growth, NCI panel, 48 h
[1] = tested on: NCI-H23
[2] = tested on: U-251
[3] = tested on: A498
[4] = tested on: RPMI-8226
[5] = tested on: NCI-H460
[6] = tested on: Malme-3M
[7] = tested on: RXF 393
[8] = tested on: NCI-H226
[9] = tested on: HCT-15
[10] = tested on: SK-MEL-2
[11] = tested on: SNB-19
[12] = tested on: LOX IMVI
[13] = tested on: IGROV-1
[14] = tested on: K562
[15] = tested on: M14
[16] = tested on: UACC-62
[17] = tested on: MCF7
[18] = tested on: MDA-MB-231
[19] = tested on: DU-145
[20] = tested on: MDA-MB-435

Compound | GI50 [1] | GI50 [2] | GI50 [3] | GI50 [4] | GI50 [5] | GI50 [6] | GI50 [7] | GI50 [8] | GI50 [9] [µM] | GI50 [10] | GI50 [11] | GI50 [12] | GI50 [13] | GI50 [14] | GI50 [15] | GI50 [16] | GI50 [17] | GI50 [18] | GI50 [19] | GI50 [20]
O=C(O)c1ccc(O)c(/N=N/c2cc(S(=O)(=O)O)c3ccccc3c2O)c1 | > 100 µM (inactive) | > 100 µM (inactive) | > 100 µM (inactive) | > 100 µM (inactive) | 37.2 µM (inactive) | > 100 µM (inactive) | > 100 µM (inactive) | > 100 µM (inactive) | > 10 | > 10 µM (inactive) | > 100 µM (inactive) | > 100 µM (inactive) | 45.1 µM (inactive) | > 100 µM (inactive) | – | – | – | – | – | –
CCOC(=O)NC(=O)c1cn(C2OC(CO)C(O)C2O)c(=O)[nH]c1=O (stereo not given) | – | > 100 µM (inactive) | > 100 µM (inactive) | > 100 µM (inactive) | > 100 µM (inactive) | > 100 µM (inactive) | > 100 µM (inactive) | > 100 µM (inactive) | > 100 | > 100 µM (inactive) | > 100 µM (inactive) | > 100 µM (inactive) | > 100 µM (inactive) | > 100 µM (inactive) | > 100 µM (inactive) | > 100 µM (inactive) | – | – | – | –
O=C1CCCC/C1=C1\C(=O)Nc2cc(F)ccc21 | > 100 µM (inactive) | > 100 µM (inactive) | > 100 µM (inactive) | > 100 µM (inactive) | > 100 µM (inactive) | > 100 µM (inactive) | > 100 µM (inactive) | > 100 µM (inactive) | > 100 | > 100 µM (inactive) | > 100 µM (inactive) | > 100 µM (inactive) | > 100 µM (inactive) | > 100 µM (inactive) | > 100 µM (inactive) | > 100 µM (inactive) | – | – | – | –
CC1CCC(C(C)C)C(OC(=O)NCn2cc(-c3ccccc3)nn2)C1 (stereo not given) | > 100 µM (inactive) | > 100 µM (inactive) | – | > 100 µM (inactive) | > 100 µM (inactive) | > 100 µM (inactive) | – | 75.2 µM (inactive) | > 100 | > 100 µM (inactive) | 33.9 µM (inactive) | > 100 µM (inactive) | > 100 µM (inactive) | > 100 µM (inactive) | > 100 µM (inactive) | – | > 100 µM (inactive) | > 100 µM (inactive) | > 100 µM (inactive) | –
CC[C@@]1(C)CCC2c3ccc(O)cc3CC[C@H]2C1C (stereo not given in full) | 18 µM (inactive) | 17 µM (inactive) | 19.6 µM (inactive) | 19.4 µM (inactive) | 22.7 µM (inactive) | 16.6 µM (inactive) | 13 µM (inactive) | – | 16 | 18.6 µM (inactive) | 17.5 µM (inactive) | 17 µM (inactive) | 20.8 µM (inactive) | 8.75 µM (inactive) | 15.7 µM (inactive) | 14.7 µM (inactive) | 15.1 µM (inactive) | – | 16.6 µM (inactive) | 15.6 µM (inactive)
COc1ccc(CN2CC(C)(C)C2=O)c(OC)c1 | > 100 µM (inactive) | > 100 µM (inactive) | > 100 µM (inactive) | > 100 µM (inactive) | > 100 µM (inactive) | > 100 µM (inactive) | > 100 µM (inactive) | > 100 µM (inactive) | > 100 | > 100 µM (inactive) | > 100 µM (inactive) | > 100 µM (inactive) | > 100 µM (inactive) | > 100 µM (inactive) | > 100 µM (inactive) | > 100 µM (inactive) | – | – | – | –
O=C(CC(=O)C1CCOC1=O)C(=O)Nc1ccc(Cl)cc1 (stereo not given) | > 100 µM (inactive) | > 100 µM (inactive) | > 100 µM (inactive) | > 100 µM (inactive) | > 100 µM (inactive) | > 100 µM (inactive) | > 100 µM (inactive) | > 100 µM (inactive) | > 100 | > 100 µM (inactive) | > 100 µM (inactive) | > 100 µM (inactive) | > 100 µM (inactive) | > 100 µM (inactive) | > 100 µM (inactive) | > 100 µM (inactive) | – | – | – | –
CN(C)CC/[N+]([O-])=C(/c1ccccc1)C12CC3CC(CC(C3)C1)C2 | 20.1 µM (inactive) | 16 µM (inactive) | 18.3 µM (inactive) | 17.7 µM (inactive) | 18.4 µM (inactive) | 39.7 µM (inactive) | 18.2 µM (inactive) | 12.5 µM (inactive) | 19.1 | 18.2 µM (inactive) | 18.2 µM (inactive) | 15.3 µM (inactive) | 18.5 µM (inactive) | 15.1 µM (inactive) | 13.4 µM (inactive) | 14 µM (inactive) | – | – | – | –
CC(CC(=O)Nc1ccc(NC(=O)CC(C)/N=N\C(N)=O)cc1)/N=N\C(N)=O (stereo not given) | > 100 µM (inactive) | > 100 µM (inactive) | > 100 µM (inactive) | > 100 µM (inactive) | 50.9 µM (inactive) | > 100 µM (inactive) | > 100 µM (inactive) | > 100 µM (inactive) | 16.4 | > 100 µM (inactive) | > 100 µM (inactive) | 24.7 µM (inactive) | > 100 µM (inactive) | > 100 µM (inactive) | > 100 µM (inactive) | > 100 µM (inactive) | – | – | – | –
COc1ccc2cc3nc(O)cc(O)c3cc2c1OC | > 100 µM (inactive) | > 100 µM (inactive) | > 100 µM (inactive) | > 100 µM (inactive) | > 100 µM (inactive) | > 100 µM (inactive) | > 100 µM (inactive) | > 100 µM (inactive) | > 100 | > 100 µM (inactive) | > 100 µM (inactive) | > 100 µM (inactive) | > 100 µM (inactive) | > 100 µM (inactive) | > 100 µM (inactive) | > 100 µM (inactive) | – | – | – | –
COc1ccc(C2=NNC(=O)OC2c2ccccc2)cc1 (stereo not given) | 53.5 µM (inactive) | > 100 µM (inactive) | 49.4 µM (inactive) | > 100 µM (inactive) | 53.2 µM (inactive) | 52.8 µM (inactive) | 38 µM (inactive) | 34.3 µM (inactive) | 37.7 | 36.1 µM (inactive) | 67.1 µM (inactive) | 55 µM (inactive) | > 100 µM (inactive) | 26.7 µM (inactive) | 50.7 µM (inactive) | 59.2 µM (inactive) | – | – | – | –
C/C(=N\NS(=O)(=O)c1ccccc1)c1ccc(Cl)c(Cl)c1 | 75.3 µM (inactive) | 37.2 µM (inactive) | 41.8 µM (inactive) | 67.5 µM (inactive) | 46.1 µM (inactive) | 68.2 µM (inactive) | 55.3 µM (inactive) | 62.8 µM (inactive) | 57 | > 100 µM (inactive) | – | 78.9 µM (inactive) | 72.9 µM (inactive) | 86.5 µM (inactive) | 45.3 µM (inactive) | 95.5 µM (inactive) | – | – | – | –
Cc1[nH]c2ccccc2c1C1Cc2ccccc2N1C(=O)/C=C/C=C/c1ccccc1 (stereo not given) | > 100 µM (inactive) | > 100 µM (inactive) | > 100 µM (inactive) | > 100 µM (inactive) | > 100 µM (inactive) | > 100 µM (inactive) | > 100 µM (inactive) | > 100 µM (inactive) | > 100 | > 100 µM (inactive) | > 100 µM (inactive) | > 100 µM (inactive) | > 100 µM (inactive) | > 100 µM (inactive) | > 100 µM (inactive) | > 100 µM (inactive) | – | – | – | –
O=C1C2Nc3ccccc3SC2C(=O)N1c1cccc([N+](=O)[O-])c1 (stereo not given) | 55.8 µM (inactive) | > 100 µM (inactive) | > 100 µM (inactive) | > 100 µM (inactive) | 50.2 µM (inactive) | > 79.6 µM (inactive) | > 100 µM (inactive) | > 86.9 µM (inactive) | 7.67 | > 75.7 µM (inactive) | > 100 µM (inactive) | > 71.1 µM (inactive) | > 100 µM (inactive) | > 100 µM (inactive) | > 100 µM (inactive) | > 100 µM (inactive) | – | – | – | –
Cc1cc(N(CCC#N)CCC#N)ccc1/C=C(\NC(=O)/C=C/c1ccccc1)C(=O)N=[N+]=[N-] | > 100 µM (inactive) | 43.1 µM (inactive) | > 100 µM (inactive) | > 100 µM (inactive) | > 100 µM (inactive) | > 100 µM (inactive) | 34.8 µM (inactive) | > 100 µM (inactive) | > 100 | > 100 µM (inactive) | 77.8 µM (inactive) | > 100 µM (inactive) | > 100 µM (inactive) | > 100 µM (inactive) | > 100 µM (inactive) | > 100 µM (inactive) | – | – | – | –
O=C1OC(O)C(Oc2ccc(Cl)cc2)=C1Cl (stereo not given) | > 100 µM (inactive) | > 100 µM (inactive) | > 100 µM (inactive) | > 100 µM (inactive) | > 100 µM (inactive) | > 100 µM (inactive) | > 100 µM (inactive) | > 100 µM (inactive) | > 100 | > 100 µM (inactive) | > 100 µM (inactive) | > 100 µM (inactive) | > 100 µM (inactive) | > 100 µM (inactive) | > 100 µM (inactive) | > 100 µM (inactive) | – | – | – | –
[O-][n+]1c(-c2ccccc2)c2nc3ccccc3nc2c2ccccc21 | > 100 µM (inactive) | > 100 µM (inactive) | > 100 µM (inactive) | > 100 µM (inactive) | > 100 µM (inactive) | > 100 µM (inactive) | > 100 µM (inactive) | > 100 µM (inactive) | > 100 | > 100 µM (inactive) | > 100 µM (inactive) | > 100 µM (inactive) | > 100 µM (inactive) | > 100 µM (inactive) | > 100 µM (inactive) | > 100 µM (inactive) | – | – | – | –

Source: ChEMBL document CHEMBL1201862, “PubChem BioAssay data set” (2004)
